Structures are written as SMILES.

SHP2, sequence (Q06124 whole entry): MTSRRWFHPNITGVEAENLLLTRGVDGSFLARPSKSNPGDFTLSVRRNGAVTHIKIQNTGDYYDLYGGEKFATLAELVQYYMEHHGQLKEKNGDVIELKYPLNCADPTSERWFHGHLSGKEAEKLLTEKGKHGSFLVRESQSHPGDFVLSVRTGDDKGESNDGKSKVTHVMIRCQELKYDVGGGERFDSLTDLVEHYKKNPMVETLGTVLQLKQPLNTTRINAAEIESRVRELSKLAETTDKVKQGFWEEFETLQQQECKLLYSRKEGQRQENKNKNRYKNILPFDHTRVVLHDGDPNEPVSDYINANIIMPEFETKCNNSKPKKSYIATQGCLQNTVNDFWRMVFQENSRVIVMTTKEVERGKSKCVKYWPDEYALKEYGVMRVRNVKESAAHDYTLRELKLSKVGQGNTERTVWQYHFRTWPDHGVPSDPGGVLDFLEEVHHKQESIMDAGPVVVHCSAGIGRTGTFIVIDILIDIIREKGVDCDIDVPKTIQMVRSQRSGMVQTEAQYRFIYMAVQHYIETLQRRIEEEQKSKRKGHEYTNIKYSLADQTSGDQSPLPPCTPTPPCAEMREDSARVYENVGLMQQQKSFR

The first assay concerns the target SHP2 (Homo sapiens (Human), UniProt Q06124). In words: SHP2 Allosteric Inhibition Assay. Type of assay: biochemical. The settings on record: 0.5 nM SHP2 with 0.5 μM peptide IRS1_pY1172(dPEG8)pY1222; surrogate substrate DiFMUP; 25° C.; read-out: IC50. A digest of the protocol:
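Phosphatase activity of bis-tyrosyl-phosphopeptide-activated SHP2 was read by prompt fluorescence from DiFMUP turnover. After 30–60 min preincubation at 25 °C, DiFMUP was added for 30 min at 25 °C. IC50s came from control-normalized dose-response fitting.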
Usually IC50 stands for the concentration at which inhibition is half-maximal. As for `CC(C)Nc1nccc(-c2n[nH]c3nc(N4CCC5(CC4)CO[C@@H](C)[C@H]5N)n(C)c(=O)c23)c1Cl` [Example 7, 6-((3S,4S)-4-amino-3-methyl-2-oxa-8-azaspiro[4.5]decan-8-yl)-3-(3-chloro-2-(isopropylamino)pyridin-4-yl)-5-methyl-1,5-dihydro-4H-pyrazolo[3,4-d]pyrimidin-4-one], the IC50 stood at 34 nM.
`CC1(CN)CCN(c2nc3[nH]cc(-c4cccc(Cl)c4Cl)c3c(=O)[nH]2)CC1` [Example 3, 2-(4-(aminomethyl)-4-methylpiperidin-1-yl)-5-(2,3-dichlorophenyl)-3,7-dihydro-4H-pyrrolo[2,3-d]pyrimidin-4-one]: the IC50 worked out at 62 nM.
For the compound `Cn1c(N2CCC(C)(CN)CC2)nc2[nH]cc(-c3cccc(Cl)c3Cl)c2c1=O` [Example 5, 2-(4-(aminomethyl)-4-methylpiperidin-1-yl)-5-(2,3-dichlorophenyl)-3-methyl-3H-pyrrolo[2,3-d]pyrimidin-4(7H)-one], the IC50 came to 100 nM.
Consider `C[C@@H]1OCC2(CCN(c3nc4[nH]nc(-c5ccnc(N)c5Cl)c4c(=O)n3C)CC2)[C@@H]1N` [Example 8, 3-(2-amino-3-chloropyridin-4-yl)-6-((3S,4S)-4-amino-3-methyl-2-oxa-8-azaspiro[4.5]decan-8-yl)-5-methyl-2,5-dihydro-4H-pyrazolo[3,4-d]pyrimidin-4-one], for which the IC50 is 36 nM.
Take `COc1nccc(-c2c[nH]c3nc(N4CCC5(CC4)CO[C@@H](C)[C@H]5N)[nH]c(=O)c23)c1Cl` [Example 10, 2-((3S,4S)-4-amino-3-methyl-2-oxa-8-azaspiro[4.5]decan-8-yl)-5-(3-chloro-2-methoxypyridin-4-yl)-3H-pyrrolo[2,3-d]pyrimidin-4(7H)-one]: the IC50 came to 26 nM.

The assay is the same for the next values; noted with them: 0.5 nM SHP2 with 0.5 μM peptide IRS1_pY1172(dPEG8)pY1222; surrogate substrate DiFMUP; 25° C.; read-out: SHP2 IC50.
On to `Cc1nc(N(C)C)ccc1-c1n[nH]c2nc(N3CCC4(CC3)CO[C@@H](C)[C@H]4N)n(C)c(=O)c12` [Example 40, 6-((3S,4S)-4-amino-3-methyl-2-oxa-8-azaspiro[4.5]decan-8-yl)-3-(6-(dimethylamino)-2-methylpyridin-3-yl)-5-methyl-1,5-dihydro-4H-pyrazolo[3,4-d]pyrimidin-4-one], for which the IC50 came out at 89 nM.
On to `Cc1nc(N)ccc1-c1n[nH]c2nc(N3CCC4(CC3)C[C@@H](C)C[C@H]4N)n(C)c(=O)c12` [Example 48, 3-(6-amino-2-methylpyridin-3-yl)-6-((1R,3R)-1-amino-3-methyl-8-azaspiro[4.5]decan-8-yl)-5-methyl-1,5-dihydro-4H-pyrazolo[3,4-d]pyrimidin-4-one], for which the IC50 turned out to be 16 nM.
In the case of `Cn1c(N2CCC3(CCC[C@H]3N)CC2)nc2[nH]nc(-c3ccnc(Cl)c3Cl)c2c1=O` [Example 22, (R)-6-(1-amino-8-azaspiro[4.5]decan-8-yl)-3-(2,3-dichloropyridin-4-yl)-5-methyl-1,5-dihydro-4H-pyrazolo[3,4-d]pyrimidin-4-one], the IC50 turned out to be 57 nM.
Same read-out and setting: then `CNc1nccc(-c2n[nH]c3nc(N4CCC5(CC4)CO[C@@H](C)[C@H]5N)n(C)c(=O)c23)c1Br` [Example 35, 6-((3S,4S)-4-amino-3-methyl-2-oxa-8-azaspiro[4.5]decan-8-yl)-3-(3-bromo-2(methylamino)pyridin-4-yl)-5-methyl-1,5-dihydro-4H-pyrazolo[3,4-d]pyrimidin-4-one], with 34 nM; and `Cc1c(-c2n[nH]c3nc(N4CCC5(CC4)CO[C@@H](C)[C@H]5N)n(C)c(=O)c23)ccnc1Cl` [Example 78, 6-((3S,4S)-4-amino-3-methyl-2-oxa-8-azaspiro[4.5]decan-8-yl)-3-(2-chloro-3-methylpyridin-4-yl)-5-methyl-1,5-dihydro-4H-pyrazolo[3,4-d]pyrimidin-4-one], with 17 nM.
On the same count and under the same terms, in the case of `Cn1c(N2CCC3(CC2)CC(F)(F)C[C@H]3N)nc2[nH]nc(-c3ccncc3)c2c1=O` [Example 51, (R)-6-(1-amino-3,3-difluoro-8-azaspiro[4.5]decan-8-yl)-5-methyl-3-(pyridin-4-yl)-1,5-dihydro-4H-pyrazolo[3,4-d]pyrimidin-4-one] it was 14 nM; in that of `C[C@@H]1OCC2(CCN(c3nc4[nH]nc(-c5ccc(F)cc5)c4c(=O)n3C)CC2)[C@@H]1N` [Example 57, 6-((3S,4S)-4-amino-3-methyl-2-oxa-8-azaspiro[4.5]decan-8-yl)-3-(4-fluorophenyl)-5-methyl-1,5-dihydro-4H-pyrazolo[3,4-d]pyrimidin-4-one], 11 nM.
As to `Cn1c(N2CCC3(CC2)COC[C@H]3N)nc2[nH]nc(-c3cccc(Cl)c3Cl)c2c1=O` [Example 20, (S)-6-(4-amino-2-oxa-8-azaspiro[4.5]decan-8-yl)-3-(2,3-dichlorophenyl)-5-methyl-1,5-dihydro-4H-pyrazolo[3,4-d]pyrimidin-4-one], the IC50 was determined as 50 nM.
`C[C@@H]1OCC2(CCN(c3nc4[nH]nc(-c5ccc(N)nc5Cl)c4c(=O)n3C)CC2)[C@@H]1N` [Example 52, 3-(6-amino-2-chloropyridin-3-yl)-6-((3S,4S)-4-amino-3-methyl-2-oxa-8-azaspiro[4.5]decan-8-yl)-5-methyl-1,5-dihydro-4H-pyrazolo[3,4-d]pyrimidin-4-one]: the IC50 was 23 nM.
As for `C[C@@H]1OCC2(CCN(c3cnc4c(-c5ccnc(Cl)c5Cl)n[nH]c4n3)CC2)[C@@H]1N` [Example 85, (3S,4S)-8-(3-(2,3-dichloropyridin-4-yl)-1H-pyrazolo[3,4-b]pyrazin-6-yl)-3-methyl-2-oxa-8-azaspiro[4.5]decan-4-amine], the half-inhibitory concentration (IC50) came to 67 nM.
As for `C[C@@H]1OCC2(CCN(c3nc4[nH]nc(-c5ccccc5F)c4c(=O)n3C)CC2)[C@@H]1N` [Example 63, 6-((3S,4S)-4-amino-3-methyl-2-oxa-8-azaspiro[4.5]decan-8-yl)-3-(2-fluorophenyl)-5-methyl-1,5-dihydro-4H-pyrazolo[3,4-d]pyrimidin-4-one], the IC50 stood at 23 nM.
Take `Cn1c(N2CCC3(CC2)COC[C@H]3N)nc2[nH]nc(-c3ccnc(N)c3Cl)c2c1=O` [Example 23, (S)-3-(2-amino-3-chloropyridin-4-yl)-6-(4-amino-2-oxa-8-azaspiro[4.5]decan-8-yl)-5-methyl-1,5-dihydro-4H-pyrazolo[3,4-d]pyrimidin-4-one]: the IC50 came out at 64 nM.
With `C[C@@H]1OCC2(CCN(c3nc4[nH]nc(-c5ccncc5)c4c(=O)n3C)CC2)[C@@H]1N` [Example 70, 6-((3S,4S)-4-amino-3-methyl-2-oxa-8-azaspiro[4.5]decan-8-yl)-5-methyl-3-(pyridin-4-yl)-1,5-dihydro-4H-pyrazolo[3,4-d]pyrimidin-4-one], the IC50 turned out to be 8 nM.
As for `C[C@H]1C[C@@H](N)C2(CCN(c3nc4[nH]nc(-c5ccnc(N)c5Cl)c4c(=O)n3C)CC2)C1` [Example 76, 3-(2-amino-3-chloropyridin-4-yl)-6-((1R,3R)-1-amino-3-methyl-8-azaspiro[4.5]decan-8-yl)-5-methyl-1,5-dihydro-4H-pyrazolo[3,4-d]pyrimidin-4-one], the IC50 came to 32 nM.
In the case of `Cc1ncccc1-c1n[nH]c2nc(N3CCC4(CC3)CO[C@@H](C)[C@H]4N)n(C)c(=O)c12` [Example 67, 6-((3S,4S)-4-amino-3-methyl-2-oxa-8-azaspiro[4.5]decan-8-yl)-5-methyl-3-(2-methylpyridin-3-yl)-1,5-dihydro-4H-pyrazolo[3,4-d]pyrimidin-4-one], the IC50 was determined as 96 nM.
On to `C[C@H]1C[C@@H](N)C2(CCN(c3nc4[nH]nc(-c5ccncc5)c4c(=O)n3C)CC2)C1` [Example 36, 6-((1R,3R)-1-amino-3-methyl-8-azaspiro[4.5]decan-8-yl)-5-methyl-3-(pyridin-4-yl)-1,5-dihydro-4H-pyrazolo[3,4-d]pyrimidin-4-one], for which the IC50 worked out at 9 nM.
`CNc1nccc(-c2n[nH]c3nc(N4CCC5(CC4)C[C@@H](C)C[C@H]5N)n(C)c(=O)c23)c1Cl` [Example 77, 6-((1R,3R)-1-amino-3-methyl-8-azaspiro[4.5]decan-8-yl)-3-(3-chloro-2-(methylamino)pyridin-4-yl)-5-methyl-1,5-dihydro-4H-pyrazolo[3,4-d]pyrimidin-4-one]: the IC50 is 30 nM.
Consider `Cn1c(N2CCC3(CCCCC3N)CC2)nc2[nH]nc(-c3cccc(Cl)c3Cl)c2c1=O` (stereo not drawn) [Example 24, 6-(7-amino-3-azaspiro[5.5]undecan-3-yl)-3-(2,3-dichlorophenyl)-5-methyl-1,5-dihydro-4H-pyrazolo[3,4-d]pyrimidin-4-one], for which the IC50 is 72 nM.
Consider `Cn1c(N2CCC3(CCC[C@H]3N)CC2)nc2[nH]nc(-c3ccnc(N)c3Cl)c2c1=O` [Example 16, (R)-3-(2-amino-3-chloropyridin-4-yl)-6-(1-amino-8-azaspiro[4.5]decan-8-yl)-5-methyl-1,5-dihydro-4H-pyrazolo[3,4-d]pyrimidin-4-one], for which the IC50 was found to be 360 nM.
Turning to `Cn1c(N2CCC3(CC2)CC(F)(F)C[C@H]3N)nc2[nH]nc(-c3ccnc(NC4CC4)c3Cl)c2c1=O` [Example 50, (R)-6-(1-amino-3,3-difluoro-8-azaspiro[4.5]decan-8-yl)-3-(3-chloro-2-(cyclopropylamino)pyridin-4-yl)-5-methyl-1,5-dihydro-4H-pyrazolo[3,4-d]pyrimidin-4-one], the IC50 is 35 nM.
Regarding `C[C@@H]1OCC2(CCN(c3nc4[nH]nc(-c5ccnc(NCC6CC6)c5Cl)c4c(=O)n3C)CC2)[C@@H]1N` [Example 74, 6-((3S,4S)-4-amino-3-methyl-2-oxa-8-azaspiro[4.5]decan-8-yl)-3-(3-chloro-2-((cyclopropylmethyl)amino)pyridin-4-yl)-5-methyl-1,5-dihydro-4H-pyrazolo[3,4-d]pyrimidin-4-one], the IC50 worked out at 39 nM.
`C[C@@H]1OCC2(CCN(c3nc4[nH]nc(-c5cc(F)cc(F)c5)c4c(=O)n3C)CC2)[C@@H]1N` [Example 65, 6-((3S,4S)-4-amino-3-methyl-2-oxa-8-azaspiro[4.5]decan-8-yl)-3-(3,5-difluorophenyl)-5-methyl-1,5-dihydro-4H-pyrazolo[3,4-d]pyrimidin-4-one]: the IC50 was found to be 38 nM.
